Positions of bridges follow the written chain, without caps; N, C: chain ends. Non-standard residues stand in square brackets, D forms with d. Residues, ends and D or L forms follow the SMILES beside them.

Experimental findings from patent US4159263A, “(D-Ala^5)-somatostatin and analogues thereof” (American Home Products Corporation, priority 1977, dated 1979) are described below.

One experiment has as its system insulin. Description: Arginine-stimulated insulin secretion in Nembutal-anesthetized rats, radioimmunoassay of blood. In kind it is in vivo. The settings on record: for Insulin: albino male rats, subcutaneous. The text has this:
(§1) The results of the assay are as follows:

The next experiment relates to glucagon. Description: Arginine-stimulated glucagon secretion in Nembutal-anesthetized rats, radioimmunoassay of blood. The conditions noted are these: for Glucagon: albino male rats, subcutaneous.
For another experiment, the system named is growth hormone. Put plainly: Arginine-stimulated growth hormone secretion in Nembutal-anesthetized rats, radioimmunoassay of blood. In kind it is in vivo. The conditions noted are these: for GH: albino male rats, subcutaneous.
From the text: as §1

Protocol for glucagon: Albino male rats were administered Nembutal intraperitoneally at a dose of 50 milligrams per kilogram. Fifteen minutes later a subcutaneous injection of the test compound or physiological saline was administered. Ten minutes later 0.5 milliliters of arginine (300 milligrams per milliliter, pH 7.2) is injected into the heart. Five minutes after receipt of the arginine the rats are decapitated and blood is collected into trasylol-EDTA. An appropriate aliquot was assayed for growth hormone, insulin and glucagon by radioimmunoassay.

As for `C[C@H](N)C(=O)NCC(=O)N[C@H]1CSSC[C@@H](C(=O)O)NC(=O)[C@H](CO)NC(=O)[C@H]([C@@H](C)O)NC(=O)[C@H](Cc2ccccc2)NC(=O)[C@H]([C@@H](C)O)NC(=O)[C@H](CCCCN)NC(=O)[C@@H](Cc2c[nH]c3ccccc23)NC(=O)[C@H](Cc2ccccc2)NC(=O)[C@H](Cc2ccccc2)NC(=O)[C@@H](C)NC(=O)[C@H](CCCCN)NC1=O` [L-Alanylglycyl-L-cysteinyl-L-lysyl-D-alanyl-L-phenylalanyl-L-phenylalanyl-D-tryptophyl-L-lysyl-L-threonyl-L-phenylalanyl-L-threonyl-L-seryl-L-cysteinecyclic (3→14)-disulfide, triacetate] (H-AGCK[dA]FF[dW]KTFTSC-OH; disulfide 3-14), the Insulin is on record as 215 ± 13 μU/ml in the experiment with insulin (dose 10 ug/kg, control 321 ± 49); 68 ± 11 μU/ml with insulin (dose 100 ug/kg, control 339 ± 45); 42 ± 5 μU/ml with insulin (dose 1,000 ug/kg, control 191 ± 11). Also, the “reducing secretion of insulin (summary in words)” value in the experiment on insulin (summary of rat results) was “effective agent for reducing secretion of growth hormone and insulin”. The Glucagon stood at 78 ± 7 pg/mL in the experiment with glucagon (dose 10 ug/kg, control 92 ± 23, *not significant) and 40 ± 6 pg/mL with glucagon (dose 1,000 ug/kg, control 42 ± 3). The “effect on glucagon levels (summary in words)” value with glucagon (summary of rat results) is given as “without materially affecting glucagon levels”. Moreover, the GH with growth hormone (dose 10 ug/kg, control 254 ± 40) came to 53 ± 6 ng/mL; in the experiment with growth hormone (dose 100 ug/kg, control 526 ± 153), 117 ± 31 ng/mL; in the experiment with growth hormone (dose 1,000 ug/kg, control 312 ± 63), 34 ± 5 ng/mL. Moreover, the “reducing secretion of growth hormone (summary in words)” value in the experiment on growth hormone (summary of rat results) is given as “effective agent for reducing secretion of growth hormone”.
